pIC50: −log10 of the molar value.

For this assay, the target named is T1, glutathione S-transferase (GST)-linked full-length human Syk protein (Homo sapiens, UniProt P43405).
T1 construct: glutathione S-transferase (GST)-linked full-length human Syk protein; purchased Carna Biosciences; host or cells: Baculovirus expression system
Nature of the assay: Syk enzyme assay. It is filed as biochemical. The following applies: 0.83 nM Syk, time-resolved fluorescence; read-out: IC50 of Syk-inhibitory activity. In short, it runs like this:
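Phosphotyrosine on a biotin-peptide substrate (0.5 μM) was read by time-resolved fluorescence at 615 and 665 nm with Eu-anti-pTyr antibody and APC-streptavidin after 1 h EDTA stop.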
For the compound `CCOc1ncc(Nc2nc(N[C@H](C3CCC3)[C@H](C)N)c(F)cc2C(N)=O)cc1-n1cccn1` [Example 2-168, 6-(((1R,2S)-2-amino-1-cyclobutylpropyl)amino)-2-((6-ethoxy-5-(1H-pyrazol-1-yl)pyridin-3-yl)amino)-5-fluoronicotinamide], the pIC50 (in general, the IC50 on a negative log10 scale, so that one unit is a factor of ten) was 7.30 to 8.00.

Take `COCCn1ncc2c(Nc3nc(N[C@@H](CN)CC(C)C)c(F)cc3C(N)=O)cccc21` [Example 2-303, (R)-6-((1-amino-4-methylpentan-2-yl)amino)-5-fluoro-2-((1-(2-methoxyethyl)-1H-indazol-4-yl)amino)nicotinamide]: the negative-log IC50 (pIC50) is above 8.00.

For the compound `Cc1ncc(Nc2nc(N[C@H](c3ccccn3)[C@H](C)N)c(F)cc2C(N)=O)cc1-n1nccn1` [Example 2-403, 6-(((1S,2S)-2-amino-1-(pyridin-2-yl)propyl)amino)-5-fluoro-2-((6-methyl-5-(2H-1,2,3-triazol-2-yl)pyridin-3-yl)amino)nicotinamide], the pIC50 was 7.30 to 8.00.

`Cc1cnn(-c2cncc(Nc3nc(N[C@H](CC(C)C)[C@H](C)N)c(F)cc3C(N)=O)c2)c1` [Example 2-525, 6-(((2S,3R)-2-amino-5-methylhexan-3-yl)amino)-5-fluoro-2-((5-(4-methyl-1H-pyrazol-1-yl)pyridin-3-yl)amino)nicotinamide]: the pIC50 is above 8.00.

As for `COc1nn(CC(F)F)c2ccc(Nc3nc(N[C@H](CC4CC4)[C@H](C)N)c(F)cc3C(N)=O)cc12` [Example 2-53, 6-(((2R,3S)-3-amino-1-cyclopropylbutan-2-yl)amino)-2-((1-(2,2-difluoroethyl)-3-methoxy-1H-indazol-5-yl)amino)-5-fluoronicotinamide], the pIC50 is above 8.00.

As for `CC[C@H](N)[C@H](Nc1nc(Nc2cnc(N3CCOCC3)c(F)c2)c(C(N)=O)cc1F)C1CC1` [Example 2-359, 6-(((1R,2S)-2-amino-1-cyclopropylbutyl)amino)-5-fluoro-2-((5-fluoro-6-morpholinopyridin-3-yl)amino)nicotinamide], the negative logarithm of the IC50 (pIC50) is 7.00 to 7.30.

Regarding `CCC[C@@H](Nc1nc(Nc2cnc(OCC)c(-n3cccn3)c2)c(C(N)=O)cc1F)[C@H](C)N` [Example 2-201, 6-(((2S,3R)-2-aminohexan-3-yl)amino)-2-((6-ethoxy-5-(1H-pyrazol-1-yl)pyridin-3-yl)amino)-5-fluoronicotinamide], the pIC50 was 7.30 to 8.00.

With `CC[C@H](N)[C@@H](C)Nc1nc(Nc2ccc3c(c2)c(N(C)C)nn3CCOC)c(C(N)=O)cc1F` [Example 2-507, 6-(((2R,3S)-3-aminopentan-2-yl)amino)-2-((3-(dimethylamino)-1-(2-methoxyethyl)-1H-indazol-5-yl)amino)-5-fluoronicotinamide], the pIC50 was 7.00 to 7.30.

As for `CC[C@H](N)[C@@H](CC)Nc1nc(Nc2cc(F)c3c(c2)c(N(C)C)nn3C)c(C(N)=O)cc1F` [Example 2-195, 6-(((3R,4S)-4-aminohexan-3-yl)amino)-2-((3-(dimethylamino)-7-fluoro-1-methyl-1H-indazol-5-yl)amino)-5-fluoronicotinamide], the pIC50 is 7.30 to 8.00.

As to `COc1nn(C)c2c(F)cc(Nc3nc(N[C@H](C4CC4)[C@H](C)N)c(F)cc3C(N)=O)cc12` [Example 2-154, 6-(((1R,2S)-2-amino-1-cyclopropylpropyl)amino)-5-fluoro-2-((7-fluoro-3-methoxy-1-methyl-1H-indazol-5-yl)amino)nicotinamide], the pIC50 was above 8.00.

Turning to `COc1ccc([C@@H](Nc2nc(Nc3cc(OC)nc(OC)c3)c(C(N)=O)cc2F)[C@H](C)N)cc1` [Example 2-357, 6-(((1R,2S)-2-amino-1-(4-methoxyphenyl)propyl)amino)-2-((2,6-dimethoxypyridin-4-yl)amino)-5-fluoronicotinamide], the pIC50 is 7.30 to 8.00.

On to `COCCn1ncc2cc(Nc3nc(N[C@H](c4cc(F)cc(F)c4)[C@H](C)N)c(F)cc3C(N)=O)ccc21` [Example 2-550, 6-(((1R,2S)-2-amino-1-(3,5-difluorophenyl)propyl)amino)-5-fluoro-2-((1-(2-methoxyethyl)-1H-indazol-5-yl)amino)nicotinamide], for which the pIC50 was above 8.00.

Take `CC[C@@H](Nc1nc(Nc2ccc3c(c2)c(NCCOC)nn3C)c(C(N)=O)cc1F)[C@H](C)N` [Example 2-463, 6-(((2S,3R)-2-aminopentan-3-yl)amino)-5-fluoro-2-((3-((2-methoxyethyl)amino)-1-methyl-1H-indazol-5-yl)amino)nicotinamide]: the pIC50 was 7.30 to 8.00.

In the case of `CC[C@@H](Nc1nc(Nc2ccc3[nH]nc(NC)c3c2)c(C(N)=O)cc1F)[C@H](C)N` [Example 2-489, 6-(((2S,3R)-2-aminopentan-3-yl)amino)-5-fluoro-2-((3-(methylamino)-1H-indazol-5-yl)amino)nicotinamide], the pIC50 is 7.30 to 8.00.

As for `CCn1ncc2c(Nc3nc(N[C@H](c4ccc(Cl)s4)[C@H](C)N)c(F)cc3C(N)=O)cccc21` [Example 2-512, 6-(((1S,2S)-2-amino-1-(5-chlorothiophen-2-yl)propyl)amino)-2-((1-ethyl-1H-indazol-4-yl)amino)-5-fluoronicotinamide], the negative logarithm of the IC50 (pIC50) is above 8.00.

Regarding `CC[C@@H](Nc1nc(Nc2ccc3c(c2)c(N(C)CCOC)nn3C)c(C(N)=O)cc1F)[C@H](C)N` [Example 2-458, 6-(((2S,3R)-2-aminopentan-3-yl)amino)-5-fluoro-2-((3-((2-methoxyethyl)(methyl)amino)-1-methyl-1H-indazol-5-yl)amino)nicotinamide], the pIC50 was above 8.00.

Consider `Cc1ncc(Nc2nc(N[C@@H]3CCC(F)(F)C[C@@H]3N)c(F)cc2C(N)=O)cc1-n1nccn1` (racemic) [Example 2-564, Mixture of 6-((2-amino-4,4-difluorocyclohexyl)amino)-5-fluoro-2-((6-methyl-5-(2H-1,2,3-triazol-2-yl)pyridin-3-yl)amino)nicotinamide (1R,2S), (1S,2R)], for which the pIC50 is 7.30 to 8.00.

Turning to `CC[C@@H](Nc1nc(Nc2cnc(OC)c(-n3ccnn3)c2)c(C(N)=O)cc1F)[C@H](C)N` [Example 2-204, 6-(((2S,3R)-2-aminopentan-3-yl)amino)-5-fluoro-2-((6-methoxy-5-(1H-1,2,3-triazol-1-yl)pyridin-3-yl)amino)nicotinamide], the pIC50 was 7.30 to 8.00.

For the compound `C[C@H](N)[C@H](Nc1nc(Nc2ccc3c(c2)c(N(C)C)nn3C)c(C(N)=O)cc1F)c1cccc(F)c1` [Example 2-452, 6-(((1R,2S)-2-amino-1-(3-fluorophenyl)propyl)amino)-2-((3-(dimethylamino)-1-methyl-1H-indazol-5-yl)amino)-5-fluoronicotinamide], the pIC50 was above 8.00.

In the case of `CC[C@@H](Nc1nc(Nc2cc(F)cc3c2cnn3CC)c(C(N)=O)cc1F)[C@H](C)N` [Example 2-371, 6-(((2S,3R)-2-aminopentan-3-yl)amino)-2-((1-ethyl-6-fluoro-1H-indazol-4-yl)amino)-5-fluoronicotinamide], the pIC50 was above 8.00.

In the case of `C[C@H](N)[C@H](Nc1nc(Nc2ccc3c(c2)c(N(C)C)nn3C)c(C(N)=O)cc1F)c1ccccc1` [Example 2-315, 6-(((1R,2S)-2-amino-1-phenylpropyl)amino)-2-((3-(dimethylamino)-1-methyl-1H-indazol-5-yl)amino)-5-fluoronicotinamide], the pIC50 was 7.30 to 8.00.

`CN(C)c1nn(C)c2ccc(Nc3nc(N[C@@H]4CCOC[C@@H]4N)c(F)cc3C(N)=O)cc12` [Example 2-212, 6-(((3R,4R)-3-aminotetrahydro-2H-pyran-4-yl)amino)-2-((3-(dimethylamino)-1-methyl-1H-indazol-5-yl)amino)-5-fluoronicotinamide]: the pIC50 is above 8.00.

As to `CC(C)C[C@@H](Nc1nc(Nc2cncc3c2cnn3CC(F)F)c(C(N)=O)cc1F)[C@H](C)N` [Example 2-400, 6-(((2S,3R)-2-amino-5-methylhexan-3-yl)amino)-2-((1-(2,2-difluoroethyl)-1H-pyrazolo[3,4-c]pyridin-4-yl)amino)-5-fluoronicotinamide], the pIC50 was above 8.00.

As for `Cc1cnn(-c2cncc(Nc3nc(N[C@H](C4CCC4)[C@H](C)N)c(F)cc3C(N)=O)c2)c1` [Example 2-523, 6-(((1R,2S)-2-amino-1-cyclobutylpropyl)amino)-5-fluoro-2-((5-(4-methyl-1H-pyrazol-1-yl)pyridin-3-yl)amino)nicotinamide], the negative logarithm of the IC50 (pIC50) was above 8.00.

For `COCCn1nc(OC)c2cc(Nc3nc(N[C@H](C4CCC4)[C@H](C)N)c(F)cc3C(N)=O)ccc21` [Example 2-540], the negative logarithm of the IC50 (pIC50) was above 8.00.

On to `COCCn1ncc2cc(Nc3nc(N[C@H](c4ccc(OC)cc4)[C@H](C)N)c(F)cc3C(N)=O)ccc21` [Example 2-455, 6-(((1R,2S)-2-amino-1-(4-methoxyphenyl)propyl)amino)-5-fluoro-2-((1-(2-methoxyethyl)-1H-indazol-5-yl)amino)nicotinamide], for which the pIC50 was above 8.00.

With `CC[C@H](N)[C@H](Nc1nc(Nc2cccc3c2cnn3CC(F)F)c(C(N)=O)cc1F)C1CC1` [Example 2-547, 6-(((1R,2S)-2-amino-1-cyclopropylbutyl)amino)-2-((1-(2,2-difluoroethyl)-1H-indazol-4-yl)amino)-5-fluoronicotinamide], the pIC50 is above 8.00.

With `Cc1nn(CC(F)F)c2ccc(Nc3nc(N[C@H](C)[C@@H](N)C4CC4)c(F)cc3C(N)=O)cc12` [Example 2-300, 6-(((1S,2R)-1-amino-1-cyclopropylpropan-2-yl)amino)-2-((1-(2,2-difluoroethyl)-3-methyl-1H-indazol-5-yl)amino)-5-fluoronicotinamide], the pIC50 was 7.30 to 8.00.

Regarding `CCn1ncc2cc(Nc3nc(N[C@H](C(C)C)[C@H](C)N)c(F)cc3C(N)=O)ccc21` [Example 2-105, 6-(((2S,3R)-2-amino-4-methylpentan-3-yl)amino)-2-((1-ethyl-1H-indazol-5-yl)amino)-5-fluoronicotinamide], the pIC50 is 7.30 to 8.00.
